Measured values as given in patent US12501917B2, “Methods and compositions for treating intestinal disorder” (MARS, INCORPORATED, priority 2019, dated 2025).

Tested on: canine fecal microbiome
Conditions: dog, in vivo

Cc1ncc([N+](=O)[O-])n1CCO [metronidazole]
dysbiosis (community evenness, distance from healthy controls, potential pathogens): exacerbated dysbiosis
